Legend:
in vitro = settings: human, Caco-2
Rat pharmacokinetics = settings: in vivo
Source text: Table S1. Compound 31cross species PK data.

in vivo = settings: dog
Source text: IV formulation vehicle for rat: 15% DMA / 50%PEG / 35% D5W; for dog: 5% DMA /
PO formulation vehicle for mouse and rat: a suspension in 0.5% CMC / 0.25% Tween80, as a
suspension; for dog: a suspension in 0.5% methyl cellulose / 0.25% Tween80

[1] = Plasma protein binding, human; type: in vitro ADME; settings: read-out: Plasma Protein Binding %, h (converted)
CYP1A2 = target: T1, CYP1A2 (Homo sapiens, UniProt P05177); assay: Cytochrome P450 inhibition, 1A2; type: in vitro ADME; settings: read-out: Cytochrome P450s IC50, 1A2
T1 sequence (P05177 1-516): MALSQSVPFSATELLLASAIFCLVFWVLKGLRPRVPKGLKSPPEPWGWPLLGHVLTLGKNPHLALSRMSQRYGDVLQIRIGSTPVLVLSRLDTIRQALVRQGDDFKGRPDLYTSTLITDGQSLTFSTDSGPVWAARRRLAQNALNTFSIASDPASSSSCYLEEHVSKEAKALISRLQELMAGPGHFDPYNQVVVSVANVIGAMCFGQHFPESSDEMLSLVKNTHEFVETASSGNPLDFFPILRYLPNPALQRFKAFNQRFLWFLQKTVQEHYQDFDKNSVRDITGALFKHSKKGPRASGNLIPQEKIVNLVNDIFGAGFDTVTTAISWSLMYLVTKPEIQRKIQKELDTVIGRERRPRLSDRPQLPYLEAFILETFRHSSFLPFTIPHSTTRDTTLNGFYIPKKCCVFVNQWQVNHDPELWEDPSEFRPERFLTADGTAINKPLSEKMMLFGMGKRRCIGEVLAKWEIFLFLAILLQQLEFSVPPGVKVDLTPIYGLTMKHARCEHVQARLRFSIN

CYP2D6 = CYP2D6 (Homo sapiens, UniProt P10635); assay: Cytochrome P450 inhibition, 2D6; type: in vitro ADME; settings: read-out: Cytochrome P450s IC50, 2D6
CYP2C8 = target: T2, CYP2C8 (Homo sapiens, UniProt P10632); assay: Cytochrome P450 inhibition, 2C8; type: in vitro ADME; settings: read-out: Cytochrome P450s IC50, 2C8
T2 sequence (P10632 1-490): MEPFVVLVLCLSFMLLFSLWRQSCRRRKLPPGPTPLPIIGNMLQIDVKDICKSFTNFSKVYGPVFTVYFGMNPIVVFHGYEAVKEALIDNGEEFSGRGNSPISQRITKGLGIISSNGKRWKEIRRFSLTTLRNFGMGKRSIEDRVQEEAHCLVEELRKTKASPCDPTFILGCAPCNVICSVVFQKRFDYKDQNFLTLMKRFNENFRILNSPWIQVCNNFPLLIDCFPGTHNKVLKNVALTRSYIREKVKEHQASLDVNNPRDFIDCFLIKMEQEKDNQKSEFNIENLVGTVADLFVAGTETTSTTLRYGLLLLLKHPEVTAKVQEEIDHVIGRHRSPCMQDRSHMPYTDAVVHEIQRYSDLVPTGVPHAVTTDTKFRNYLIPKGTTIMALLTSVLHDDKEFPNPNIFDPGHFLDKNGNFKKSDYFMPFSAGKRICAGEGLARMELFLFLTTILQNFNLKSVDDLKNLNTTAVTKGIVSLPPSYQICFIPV

[2] = Exploratory toxicological evaluation in vivo
Source text: Showing no in vitro safety concerns (Table 7), it was progressed into in vivo safety evaluation studies. […] Since the mechanism of action of this series of compounds is not known, the best approach was to design analogs that would limit exposure within the brain.

TK6 cells = assay: Micronucleus test; type: cell-based; settings: presence and absence of rat liver S9

Sequence of CYP2D6 (P10635 whole entry): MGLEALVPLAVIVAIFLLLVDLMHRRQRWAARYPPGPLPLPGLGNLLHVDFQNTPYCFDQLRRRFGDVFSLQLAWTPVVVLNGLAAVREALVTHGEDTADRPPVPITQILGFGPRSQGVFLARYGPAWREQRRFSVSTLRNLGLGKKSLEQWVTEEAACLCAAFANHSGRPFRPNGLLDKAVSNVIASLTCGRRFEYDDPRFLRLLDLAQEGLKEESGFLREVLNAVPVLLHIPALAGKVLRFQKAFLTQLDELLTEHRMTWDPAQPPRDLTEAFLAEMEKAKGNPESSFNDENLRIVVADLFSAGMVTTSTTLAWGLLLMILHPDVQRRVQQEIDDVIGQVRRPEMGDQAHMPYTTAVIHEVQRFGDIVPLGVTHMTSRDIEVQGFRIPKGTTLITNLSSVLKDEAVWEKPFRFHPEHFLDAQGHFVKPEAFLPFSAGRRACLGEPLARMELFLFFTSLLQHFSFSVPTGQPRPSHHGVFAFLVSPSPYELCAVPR

Structure (SMILES) | efflux ratio (in vitro) | clearance (Rat pharmacokinetics; iv, i.v. 2 mg/kg, mean ±SD) | Vd (Rat pharmacokinetics; iv, i.v. 2 mg/kg, read-out: Vss) | AUC(0-inf) (Rat pharmacokinetics; po, p.o. 10 mg/kg) | Cmax (Rat pharmacokinetics; po, p.o. 10 mg/kg) | Tmax (Rat pharmacokinetics; po, p.o. 10 mg/kg) | bioavailability (Rat pharmacokinetics; po, p.o. 10 mg/kg) | Vd (in vivo; iv, 2 mg/kg) | clearance (in vivo; iv, 2 mg/kg) | AUC(0-inf) (in vivo; po, 3 mg/kg) | Cmax (in vivo; po, 3 mg/kg) | Tmax (in vivo; po, 3 mg/kg) | bioavailability (in vivo; po, 3 mg/kg) | fraction unbound [1] | IC50 (CYP1A2) | IC50 (CYP2D6) | IC50 (CYP2C8) | exploratory toxicological evaluation, observations [2] | micronucleus (TK6 cells)
Cc1cccnc1Nc1nc(-c2ccc(OC3CCN(C4CC4)CC3)cn2)ns1 [Compound 19, 3-[5-[(1-Cyclopropyl-4-piperidyl)oxy]-2-pyridyl]-N-(3-methyl-2-pyridyl)-1,2,4-thiadiazol-5-amine] | 0.9 | – | – | – | – | – | – | – | – | – | – | – | – | – | – | – | – | – | –
CC(C)Oc1ccc(-c2nsc(Nc3ncccc3N(C)C)n2)nc1 [Compound 31, N^2-(3-(5-Isopropoxypyridin-2-yl)-1,2,4-thiadiazol-5-yl)-N3,N3-dimethylpyridine-2,3-diamine] | – | 0.493 ± 0.163 L/h/kg | 2.07 ± 0.92 L/kg | 38.1 ± 5.1 µM·h | 6.28 ± 0.9 µM | 2 h | 63 ± 20% | 3.08 ± 0.03 L/kg | 1.13 ± 0.162 L/h/kg | 4.02 ± 1.03 µM·h | 1.41 ± 0.53 µM | 1.2 ± 0.8 h | 55 ± 21% | < 0.01 | > 30 µM | > 30 µM | 7.1 µM | CNS (central nervous system)-related observations were noted | –
CC(=O)N(C)c1cccnc1Nc1nc(-c2ccc(OC(C)C)cn2)ns1 [Compound 47, N-(2-((3-(5-Isopropoxypyridin-2-yl)-1,2,4-thiadiazol-5-yl)amino)pyridin-3-yl)-N-methylacetamide] | – | – | – | – | – | – | – | – | – | – | – | – | – | 0.093 | > 30 µM | 30 µM | > 30 µM | – | negative

Source: paper PMC9421654, “Discovery of Substituted Di(pyridin-2-yl)-1,2,4-thiadiazol-5-amines as Novel Macrofilaricidal Compounds for the Treatment of Human Filarial Infections” (Journal of Medicinal Chemistry, 2022)
